Experimental findings from patent US12454529B2, “Piperazine cyclic ureas” (SIRONAX LTD., priority 2020, dated 2025) are described below.

Where two headings read alike, the source gives them in different places.

By EC50 is commonly meant the concentration giving half of the maximal effect.

For this assay, the system named is HT-29 cells. As to the kind of experiment: HT-29 cell necrosis/necroptosis inhibition (TNF-α + SMAC mimetic + zVAD-FMK; CellTiter-Glo cell viability). The format is cell-based. As to conditions: Homo sapiens, HT-29 cells, TNF-α 10 ng/ml + SMAC mimetic 6 μM + zVAD-FMK 10 μM, 20 hours, geometric mean, 10 points in duplicate. A digest of the protocol: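 HT-29 cells (~5,000/well) were switched to FBS-free McCOY's 5A holding TNF-α (10 ng/ml), SMAC mimetic (6 μM) and zVAD-FMK (10 μM), then dosed with a 10-point 1:3 series for 20 h at 37 °C. CellTiter-Glo luminescence gave viability; geometric mean EC50 from duplicates.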
A general note: In ATP-based viability assays light output follows the ATP content of the culture.

The mark [1] stands for this setting: read-out: EC50 (Cell activity; Necrosis/Necroptosis Inhibitory Activity, Compounds 143-323).
Where [2] appears, read: read-out: EC50 (Cell activity; Necrosis/Necroptosis Inhibitory Activity, Compounds 1-142).

`O=C(N1CCN(c2ncc(F)c(-n3nccc3C(F)(F)F)n2)CC1)N1N=CC[C@H]1c1cc(F)cc(F)c1` [Compound 315, (S)-(5-(3,5-difluorophenyl)-4,5-dihydro-1H-pyrazol-1-yl)(4-(5-fluoro-4-(5-(trifluoromethyl)-1H-pyrazol-1-yl)pyrimidin-2-yl)piperazin-1-yl)methanone]: under setting [1], the EC50 lay within 0.1 to 100 nM.

In the case of `Cc1cnc(C2CC=NN2C(=O)N2CCN(c3ncc(F)c(-c4nnc(C)s4)n3)CC2)s1` (centres unmarked) [Compound 316], the EC50 under setting [1] lay in the range of 0.1 to 100 nM.

For the compound `N#Cc1cc(F)cc([C@@H]2CC=NN2C(=O)N2CCN(c3ncc(F)c(-n4nccc4C(F)(F)F)n3)CC2)c1` [Compound 304, (S)-3-fluoro-5-(1-(4-(5-fluoro-4-(5-(trifluoromethyl)-1H-pyrazol-1-yl)pyrimidin-2-yl)piperazine-1-carbonyl)-4,5-dihydro-1H-pyrazol-5-yl)benzonitrile], the EC50 under setting [1] lay within 0.1 to 100 nM. Consider `Cc1nn(CC2CCOCC2)c(C)c1-c1nc(N2CCN(C(=O)N3N=CC[C@H]3c3cc(F)cc(F)c3)CC2)ncc1F` [Compound 122, (S)-(5-(3,5-difluorophenyl)-4,5-dihydro-1H-pyrazol-1-yl)(4-(4-(3,5-dimethyl-1-((tetrahydro-2H-pyran-4-yl)methyl)-1H-pyrazol-4-yl)-5-fluoropyrimidin-2-yl)piperazin-1-yl)methanone], for which the EC50 under setting [2] is 0.1 to 100 nM. With `CCn1c(C)nn(-c2nc(N3CCN(C(=O)N4N=CC[C@H]4c4cc(F)cc(F)c4)CC3)ncc2F)c1=O` [Compound 98, (S)-2-(2-(4-(5-(3,5-difluorophenyl)-4,5-dihydro-1H-pyrazole-1-carbonyl)piperazin-1-yl)-5-fluoropyrimidin-4-yl)-4-ethyl-5-methyl-2,4-dihydro-3H-1,2,4-triazol-3-one], under setting [2], the EC50 was in the range of 0.1 to 100 nM. Regarding `Cc1nc(C)n(-c2nc(N3CCN(C(=O)N4N=CC[C@H]4c4cnc(C)s4)CC3)ncc2F)n1` [Compound 240, (S)-(4-(4-(3,5-dimethyl-1H-1,2,4-triazol-1-yl)-5-fluoropyrimidin-2-yl)piperazin-1-yl)(5-(2-methylthiazol-5-yl)-4,5-dihydro-1H-pyrazol-1-yl)methanone], the EC50 under setting [1] fell in the range of 0.1 to 100 nM. As to `O=C(O)c1c[nH]c(-c2nc(N3CCN(C(=O)N4N=CC[C@H]4c4cc(F)cc(F)c4)CC3)ncc2F)c1` [Compound 21, (S)-5-(2-(4-(5-(3,5-difluorophenyl)-4,5-dihydro-1H-pyrazole-1-carbonyl)piperazin-1-yl)-5-fluoropyrimidin-4-yl)-1H-pyrrole-3-carboxylic acid], the EC50 under setting [2] is 0.1 to 100 nM. As to `COc1cc(-c2nc(N3CCN(C(=O)N4N=CC[C@H]4c4cc(F)cc(F)c4)CC3)ncc2F)nc(OC)n1` [Compound 19, (S)-(5-(3,5-difluorophenyl)-4,5-dihydro-1H-pyrazol-1-yl)(4-(5-fluoro-2′,6′-dimethoxy-[4,4′-bipyrimidin]-2-yl)piperazin-1-yl)methanone], the EC50 under setting [2] lay within 0.1 to 100 nM.

`Cn1ncnc1-c1ccc(F)c(N2CCN(C(=O)N3N=CC[C@H]3c3cc(F)cc(C#N)c3)CC2)n1` [Compound 176, (S)-3-fluoro-5-(1-(4-(3-fluoro-6-(1-methyl-1H-1,2,4-triazol-5-yl)pyridin-2-yl)piperazine-1-carbonyl)-4,5-dihydro-1H-pyrazol-5-yl)benzonitrile]: the EC50 under setting [1] fell in the range of 0.1 to 100 nM. As for `Cc1[nH]nc(CO)c1-c1nc(N2CCN(C(=O)N3N=CC[C@H]3c3cc(F)cc(C#N)c3)CC2)ncc1F` [Compound 74, (S)-3-fluoro-5-(1-(4-(5-fluoro-4-(3-(hydroxymethyl)-5-methyl-1H-pyrazol-4-yl)pyrimidin-2-yl)piperazine-1-carbonyl)-4,5-dihydro-1H-pyrazol-5-yl)benzonitrile], under setting [2], the EC50 was in the range of 0.1 to 100 nM. Turning to `COc1cnc(N2CCN(C(=O)N3N=CC[C@H]3c3cc(F)cc(C#N)c3)CC2)nc1-c1ncnn1C` [Compound 150, (S)-3-fluoro-5-(1-(4-(5-methoxy-4-(1-methyl-1H-1,2,4-triazol-5-yl)pyrimidin-2-yl)piperazine-1-carbonyl)-4,5-dihydro-1H-pyrazol-5-yl)benzonitrile], the EC50 under setting [1] lay in the range of 0.1 to 100 nM.

As for `N#Cc1cc(F)cc([C@@H]2CC=NN2C(=O)N2CCN(c3ncc(F)c(-c4ccn(CC(N)=O)n4)n3)CC2)c1` [Compound 76, (S)-2-(3-(2-(4-(5-(3-cyano-5-fluorophenyl)-4,5-dihydro-1H-pyrazole-1-carbonyl)piperazin-1-yl)-5-fluoropyrimidin-4-yl)-1H-pyrazol-1-yl)acetamide], the EC50 under setting [2] lay within 0.1 to 100 nM. As to `Cc1ncc(-c2nc(N3CCN(C(=O)N4N=CC[C@H]4c4cc(F)cc(F)c4)CC3)ncc2F)s1` [Compound 56, (S)-(5-(3,5-difluorophenyl)-4,5-dihydro-1H-pyrazol-1-yl)(4-(5-fluoro-4-(2-methylthiazol-5-yl)pyrimidin-2-yl)piperazin-1-yl)methanone], the EC50 under setting [2] was in the range of 0.1 to 100 nM.

Regarding `O=C(N1CCN(c2nccc(-c3cc[nH]n3)n2)CC1)N1N=CC[C@H]1c1cc(F)cc(F)c1` [Compound 33, (S)-(4-(4-(1H-pyrazol-3-yl)pyrimidin-2-yl)piperazin-1-yl)(5-(3,5-difluorophenyl)-4,5-dihydro-1H-pyrazol-1-yl)methanone], the EC50 under setting [2] was 0.1 to 100 nM. `Cc1cc(-c2nc(N3CCN(C(=O)N4N=CC[C@H]4c4cc(F)cc(F)c4)CC3)ccc2F)n(C)n1` [Compound 115, (S)-(5-(3,5-difluorophenyl)-4,5-dihydro-1H-pyrazol-1-yl)(4-(6-(1,3-dimethyl-1H-pyrazol-5-yl)-5-fluoropyridin-2-yl)piperazin-1-yl)methanone]: under setting [2], the EC50 fell in the range of 0.1 to 100 nM. For the compound `O=C(N1CCN(c2ncc(F)c(-n3cnc(C(F)(F)F)n3)n2)CC1)N1N=CC[C@H]1c1ccccc1` [Compound 312, (S)-(4-(5-fluoro-4-(3-(trifluoromethyl)-1H-1,2,4-triazol-1-yl)pyrimidin-2-yl)piperazinyl)(5-phenyl-4,5-dihydro-1H-pyrazol-1-yl)methanone], the EC50 under setting [1] is 0.1 to 100 nM. `Cc1ncn(-c2nc(N3CCN(C(=O)N4N=CC[C@H]4c4cccc(F)c4)CC3)ncc2F)n1` [Compound 310, (S)-(4-(5-fluoro-4-(3-methyl-1H-1,2,4-triazol-1-yl)pyrimidin-2-yl)piperazin-1-yl)(5-(3-fluorophenyl)-4,5-dihydro-1H-pyrazol-1-yl)methanone]: under setting [1], the EC50 is 0.1 to 100 nM. On the same count and under the same terms, in the case of `Cc1cnn(C)c1-c1ccc(F)c(N2CCN(C(=O)N3N=CCC3c3cccnc3)CC2)n1` (centres unmarked) [Compound 295, (4-(6-(1,4-dimethyl-1H-pyrazol-5-yl)-3-fluoropyridin-2-yl)piperazin-1-yl)(5-(pyridin-3-yl)-4,5-dihydro-1H-pyrazol-1-yl)methanone] it was 0.1 to 100 nM. On to `NC(=O)c1cnn(-c2nc(N3CCN(C(=O)N4N=CC[C@H]4c4cc(F)cc(F)c4)CC3)ncc2F)c1` [Compound 101, (5)-1-(2-(4-(5-(3,5-difluorophenyl)-4,5-dihydro-1H-pyrazole-1-carbonyl)piperazin-1-yl)-5-fluoropyrimidin-4-yl)-1H-pyrazole-4-carboxamide], for which the EC50 under setting [2] was 0.1 to 100 nM. Turning to `Cc1nc(C)c(-c2nc(N3CCN(C(=O)N4N=CC[C@H]4c4cc(F)cc(F)c4)CC3)ncc2F)s1` [Compound 55, (S)-(5-(3,5-difluorophenyl)-4,5-dihydro-1H-pyrazol-1-yl)(4-(4-(2,4-dimethylthiazol-5-yl)-5-fluoropyrimidin-2-yl)piperazin-1-yl)methanone], the EC50 under setting [2] was in the range of 0.1 to 100 nM. On to `Cc1nc(C)n(-c2ncnc(N3CCN(C(=O)N4N=CC[C@H]4c4cc(F)cc(C#N)c4)CC3)n2)n1` [Compound 130, (S)-3-(1-(4-(4-(3,5-dimethyl-1H-1,2,4-triazol-1-yl)-1,3,5-triazin-2-yl)piperazine-1-carbonyl)-4,5-dihydro-1H-pyrazol-5-yl)-5-fluorobenzonitrile], for which the EC50 under setting [2] was in the range of 0.1 to 100 nM. As to `Cc1cnn(C)c1-c1ccc(F)c(N2CCN(C(=O)N3N=CCC3c3ncccc3Cl)CC2)n1` (centres unmarked) [Compound 300, (5-(3-chloropyridin-2-yl)-4,5-dihydro-1H-pyrazol-1-yl)(4-(6-(1,4-dimethyl-1H-pyrazol-5-yl)-3-fluoropyridin-2-yl)piperazin-1-yl)methanone], the EC50 under setting [1] fell in the range of 0.1 to 100 nM.

In the case of `Cc1nn(C)c(C)c1-c1nc(N2CCN(C(=O)N3N=CC[C@H]3c3cc(F)cc(F)c3)CC2)ncc1F` [Compound 58, (S)-(5-(3,5-difluorophenyl)-4,5-dihydro-1H-pyrazol-1-yl)(4-(5-fluoro-4-(1,3,5-trimethyl-1H-pyrazol-4-yl)pyrimidin-2-yl)piperazin-1-yl)methanone], the EC50 under setting [2] lay in the range of 0.1 to 100 nM.

As to `Cc1cnn(C)c1-c1cc(N2CCN(C(=O)N3N=CC[C@H]3c3cc(F)cc(F)c3)CC2)c(F)cn1` [Compound 149, (S)-(5-(3,5-difluorophenyl)-4,5-dihydro-1H-pyrazol-1-yl)(4-(2-(1,4-dimethyl-1H-pyrazol-5-yl)-5-fluoropyridin-4-yl)piperazin-1-yl)methanone], under setting [1], the EC50 is 0.1 to 100 nM. Still for that read-out and setting: then `Cc1nc(C)n(-c2nc(N3CCN(C(=O)N4N=CC[C@@H]4c4ncc(C)s4)CC3)ncc2F)n1` [Compound 242, (R)-(4-(4-(3,5-dimethyl-1H-1,2,4-triazol-1-yl)-5-fluoropyrimidinyl)piperazin-1-yl)(5-(5-methylthiazol-2-yl)-4,5-dihydro-1H-pyrazol-1-yl)methanone], with 0.1 to 100 nM. As to `Cc1cc(-c2nc(N3CCN(C(=O)N4N=CC[C@H]4c4cncc(F)c4)CC3)ncc2F)n(C)n1` [Compound 86, (S)-(4-(4-(1,3-dimethyl-1H-pyrazol-5-yl)-5-fluoropyrimidinyl)piperazin-1-yl)(5-(5-fluoropyridin-3-yl)-4,5-dihydro-1H-pyrazol-1-yl)methanone], the EC50 under setting [2] fell in the range of 0.1 to 100 nM.
